Experimental data reported in patent US9877956B2, “Antiviral compounds and methods of use thereof” (Trana Discovery, Inc., priority 2014, dated 2018).
Values after ≈ are worked out from the molar mass of the structure shown. Values joined by “and” are separate entries in the source; they are usually repeats but may differ in a detail not shown here. Identical values can stand only once.

Key:
Assay type in all cases: cell-based
[1] = tested on: HIV-1/Ba-L; test: Inhibition of HIV-1 Ba-L replication in PBMC (RT values); conditions: for % VC: RT relative to virus control; for RT Values (cpm), SAMPLE: individual samples
Procedure: (§1) These compounds were further screened for activity in HIV-1-infected peripheral blood mononuclear cells (PBMC). The data (experiments were repeated, so duplicates are shown) is summarized in the tables below, and also in FIGS. 4A-B and 5A-B.
The HIV strain was HIV-1/Ba-L. The titer was 0.1 μL/well.

[2] = Toxicity in PBMC (Cell Titer 96); conditions: human, peripheral blood mononuclear cells (PBMC); PBMC, Cell Titer 96
Source text: as §1

[3] = tested on: PBMC; test: Toxicity in PBMC (Cell Titer 96); conditions: for % CC: O.D. relative to cell control; for TOXICITY VALUES (Cell Titer 96 - O.D. @ 490/650 nm), SAMPLE: individual samples
Source text: as §1

[4] = tested on: HIV-1 92/HT/599; test: HIV-1 92/HT/599 replication in human PBMCs, reverse transcriptase in culture supernatants (RLU); conditions: for RLU (Relative Light Units), SAMPLE: individual samples, listed as Trana 156
Procedure: (§2) In these studies, PHA-P stimulated PBMCs from three donors were pooled together and re-suspended in fresh tissue culture medium at 1×10^6 cells/mL and plated in the interior wells of a 96 well round bottom microplate at 50µl/well. A 100µL volume of 9 concentrations of compound serially diluted were transferred to the round-bottom 96 well plate containing the cells in triplicate. Fifty microliters (µL) of HIV-1 at a pre-determined dilution was added. Each plate contained cell control wells and virus control wells in parallel with the experimental wells. After 7 days in culture, efficacy was evaluated by measuring the reverse transcriptase in the culture supernatants and the cells were stained with the tetrazolium dye XTT to evaluate cytotoxicity.

[5] = tested on: HUMAN PBMCS; test: Cytotoxicity in human PBMCs (XTT); conditions: for TOXICITY VALUES (XTT - O.D. @ 450/650 nm), SAMPLE: individual samples, listed as Trana 156
Procedure: as §2

[6] = Human immunodeficiency virus 1, BAL, PBMC, HIV-1 Ba-L in PBMC

CC1(C)OC(=O)C(=Cc2ccc(I)o2)C(=O)O1 [HIT #156]
% VC ([1]; 0.01 μM): 112.3% and 106.4%
RT Values (cpm), SAMPLE ([1]; 0.01 μM): 10480 cpm and 8884 cpm and 11894 cpm and 25643 cpm and 28270 cpm and 33067 cpm
% VC ([1]; 0.03 μM): 84.0% and 99.4%
RT Values (cpm), SAMPLE ([1]; 0.03 μM): 6505 cpm and 8625 cpm and 8243 cpm and 25769 cpm and 26494 cpm and 29027 cpm
% VC ([1]; 0.10 μM): 68.9% and 122.1%
RT Values (cpm), SAMPLE ([1]; 0.10 μM): 8064 cpm and 6238 cpm and 4871 cpm and 38847 cpm and 24637 cpm and 36331 cpm
% VC ([1]; 0.32 μM): 81.3% and 86.3%
RT Values (cpm), SAMPLE ([1]; 0.32 μM): 8253 cpm and 7009 cpm and 7376 cpm and 18012 cpm and 26707 cpm and 25800 cpm
% VC ([1]; 1.00 μM): 64.5% and 85.3%
RT Values (cpm), SAMPLE ([1]; 1.00 μM): 9732 cpm and 5647 cpm and 2583 cpm and 21965 cpm and 22751 cpm and 25042 cpm
% VC ([1]; 3.16 μM): 27.9% and 43.2%
RT Values (cpm), SAMPLE ([1]; 3.16 μM): 6132 cpm and 1058 cpm and 586 cpm and 6829 cpm and 9899 cpm and 18609 cpm
% VC ([1]; 10.0 μM): 6.4% and 12.6%
RT Values (cpm), SAMPLE ([1]; 10.0 μM): 635 cpm and 579 cpm and 575 cpm and 9437 cpm and 247 cpm and 585 cpm
% VC ([1]; 31.6 μM): 1.6% and 2.3%
RT Values (cpm), SAMPLE ([1]; 31.6 μM): 54 cpm and 94 cpm and 290 cpm and 120 cpm and 1345 cpm and 378 cpm
% VC ([1]; 100 μM): 0.1% and 0.0%
RT Values (cpm), SAMPLE ([1]; 100 μM): 18 cpm and 2 cpm and 0 cpm
IC50 ([1]; HIV-1 Ba-L in PBMC): 2.63 µM
IC90 ([1]; HIV-1 Ba-L in PBMC): 13.3 µM
IC 95% ([1]; HIV-1 Ba-L in PBMC): 14.0 µM and 23.3 µM
IC50 [1, 6]: 1.58 µM
IC90 [1, 6]: 8.26 µM
ANTIVIRAL INDEX (AI) 50% ([1]; TC/IC at 50%): >63.3 and >38.1
ANTIVIRAL INDEX (AI) 90% ([1]; TC/IC at 90%): >12.1 and >7.51
ANTIVIRAL INDEX (AI) 95% ([1]; TC/IC at 95%): >7.14 and >4.30
CC50 [2]: > 100 µM
% CC ([3]; 0.01 μM): 110.7% and 108.3%
TOXICITY VALUES (Cell Titer 96 - O.D. @ 490/650 nm), SAMPLE ([3]; 0.01 μM): 2.344 O.D. and 1.718 O.D. and 1.852 O.D. and 0.687 O.D. and 1.030 O.D. and 0.777 O.D.
% CC ([3]; 0.03 μM): 111.8% and 118.7%
TOXICITY VALUES (Cell Titer 96 - O.D. @ 490/650 nm), SAMPLE ([3]; 0.03 μM): 2.336 O.D. and 1.807 O.D. and 1.831 O.D. and 0.821 O.D. and 1.115 O.D. and 0.798 O.D.
TOXICITY VALUES (Cell Titer 96 - O.D. @ 490/650 nm), MEAN ([3]; 0.10 μM): 1.952 O.D. and 0.991 O.D.
% CC ([3]; 0.10 μM): 109.6% and 129.1%
TOXICITY VALUES (Cell Titer 96 - O.D. @ 490/650 nm), SAMPLE ([3]; 0.10 μM): 2.142 O.D. and 1.855 O.D. and 1.858 O.D. and 1.098 O.D. and 1.053 O.D. and 0.822 O.D.
TOXICITY VALUES (Cell Titer 96 - O.D. @ 490/650 nm), MEAN ([3]; 0.32 μM): 1.937 O.D. and 1.031 O.D.
% CC ([3]; 0.32 μM): 108.8% and 134.3%
TOXICITY VALUES (Cell Titer 96 - O.D. @ 490/650 nm), SAMPLE ([3]; 0.32 μM): 2.234 O.D. and 1.808 O.D. and 1.768 O.D. and 1.094 O.D. and 1.234 O.D. and 0.765 O.D.
TOXICITY VALUES (Cell Titer 96 - O.D. @ 490/650 nm), MEAN ([3]; 1.00 μM): 1.882 O.D. and 1.010 O.D.
% CC ([3]; 1.00 μM): 105.7% and 131.5%
TOXICITY VALUES (Cell Titer 96 - O.D. @ 490/650 nm), SAMPLE ([3]; 1.00 μM): 2.065 O.D. and 1.819 O.D. and 1.762 O.D. and 1.173 O.D. and 1.067 O.D. and 0.789 O.D.
TOXICITY VALUES (Cell Titer 96 - O.D. @ 490/650 nm), MEAN ([3]; 3.16 μM): 1.914 O.D. and 1.060 O.D.
% CC ([3]; 3.16 μM): 107.5% and 138.1%
TOXICITY VALUES (Cell Titer 96 - O.D. @ 490/650 nm), SAMPLE ([3]; 3.16 μM): 2.179 O.D. and 1.770 O.D. and 1.792 O.D. and 1.161 O.D. and 1.175 O.D. and 0.845 O.D.
TOXICITY VALUES (Cell Titer 96 - O.D. @ 490/650 nm), MEAN ([3]; 10.0 μM): 1.924 O.D. and 0.976 O.D.
% CC ([3]; 10.0 μM): 108.1% and 127.1%
TOXICITY VALUES (Cell Titer 96 - O.D. @ 490/650 nm), SAMPLE ([3]; 10.0 μM): 2.172 O.D. and 1.791 O.D. and 1.810 O.D. and 1.001 O.D. and 0.993 O.D. and 0.934 O.D.
TOXICITY VALUES (Cell Titer 96 - O.D. @ 490/650 nm), MEAN ([3]; 31.6 μM): 1.891 O.D. and 0.979 O.D.
% CC ([3]; 31.6 μM): 106.2% and 127.5%
TOXICITY VALUES (Cell Titer 96 - O.D. @ 490/650 nm), SAMPLE ([3]; 31.6 μM): 2.078 O.D. and 1.741 O.D. and 1.855 O.D. and 0.997 O.D. and 1.014 O.D. and 0.926 O.D.
TOXICITY VALUES (Cell Titer 96 - O.D. @ 490/650 nm), MEAN ([3]; 100 μM): 1.613 O.D. and 0.847 O.D.
% CC ([3]; 100 μM): 90.6% and 110.3%
TOXICITY VALUES (Cell Titer 96 - O.D. @ 490/650 nm), SAMPLE ([3]; 100 μM): 1.651 O.D. and 1.594 O.D. and 0.795 O.D. and 0.787 O.D. and 0.978 O.D.
TC 90% ([3]; PBMC, Cell Titer 96): >100 µM
TC 95% ([3]; PBMC, Cell Titer 96): >100 µM
% Virus Control ([4]; 0.32 μg/ml): 93.58%
Antiviral Test Values Mean RLU ([4]; 0.32 μg/ml): 18048.7 RLU
RLU (Relative Light Units), SAMPLE ([4]; 0.32 μg/ml): 9520.0 RLU and 22416.0 RLU and 22210.0 RLU
% Virus Control ([4]; 1 μg/ml): 110.39%
Antiviral Test Values Mean RLU ([4]; 1 μg/ml): 21291.7 RLU
RLU (Relative Light Units), SAMPLE ([4]; 1 μg/ml): 24338.0 RLU and 22848.0 RLU and 16689.0 RLU
% Virus Control ([4]; 3.16 μg/ml): 62.76%
Antiviral Test Values Mean RLU ([4]; 3.16 μg/ml): 12105.7 RLU
RLU (Relative Light Units), SAMPLE ([4]; 3.16 μg/ml): 9530.0 RLU and 14041.0 RLU and 12746.0 RLU
% Virus Control ([4]; 9.99 μg/ml): 4.15%
Antiviral Test Values Mean RLU ([4]; 9.99 μg/ml): 800.0 RLU
RLU (Relative Light Units), SAMPLE ([4]; 9.99 μg/ml): 138.0 RLU and 48.0 RLU and 2214.0 RLU
% Virus Control ([4]; 31.6 μg/ml): 0.21%
Antiviral Test Values Mean RLU ([4]; 31.6 μg/ml): 41.3 RLU
RLU (Relative Light Units), SAMPLE ([4]; 31.6 μg/ml): 46.0 RLU and 42.0 RLU and 36.0 RLU
% Virus Control ([4]; 100 μg/ml): 0.31%
Antiviral Test Values Mean RLU ([4]; 100 μg/ml): 60.7 RLU
RLU (Relative Light Units), SAMPLE ([4]; 100 μg/ml): 68.0 RLU and 62.0 RLU and 52.0 RLU
EC 25% ([4]; HIV-1 92/HT/599, human PBMCs): 2.35 µg/mL (≈ 6.75 µM)
EC 95% ([4]; HIV-1 92/HT/599, human PBMCs): 9.82 µg/mL (≈ 28.2 µM)
EC50 ([4]; Human immunodeficiency virus 1, PBMC, read-out: EC50 (EC 50%), HIV-1 92/HT/599, human PBMCs): 4.06 µg/mL (≈ 11.7 µM)
Therapeutic Index (TI) 25% ([4]; TC/EC at 25%): 5.23
Therapeutic Index (TI) 50% ([4]; TC/EC at 50%): 4.43
Therapeutic Index (TI) 95% ([4]; TC/EC at 95%): <10.18
% Cell Viability ([5]; 0.32 μg/ml): 97.66%
Cytotoxicity Test Values Mean OD @ 450/650 nm ([5]; 0.32 μg/ml): 1.094 OD
TOXICITY VALUES (XTT - O.D. @ 450/650 nm), SAMPLE ([5]; 0.32 μg/ml): 1.0465 O.D. (2×) and 1.1893 O.D.
% Cell Viability ([5]; 1 μg/ml): 99.50%
Cytotoxicity Test Values Mean OD @ 450/650 nm ([5]; 1 μg/ml): 1.115 OD
TOXICITY VALUES (XTT - O.D. @ 450/650 nm), SAMPLE ([5]; 1 μg/ml): 1.1281 O.D. (2×) and 1.0879 O.D.
% Cell Viability ([5]; 3.16 μg/ml): 87.52%
Cytotoxicity Test Values Mean OD @ 450/650 nm ([5]; 3.16 μg/ml): 0.980 OD
TOXICITY VALUES (XTT - O.D. @ 450/650 nm), SAMPLE ([5]; 3.16 μg/ml): 0.9762 O.D. (2×) and 0.9889 O.D.
% Cell Viability ([5]; 9.99 μg/ml): 89.00%
Cytotoxicity Test Values Mean OD @ 450/650 nm ([5]; 9.99 μg/ml): 0.997 OD
TOXICITY VALUES (XTT - O.D. @ 450/650 nm), SAMPLE ([5]; 9.99 μg/ml): 1.1309 O.D. (2×) and 0.7293 O.D.
% Cell Viability ([5]; 31.6 μg/ml): 12.90%
Cytotoxicity Test Values Mean OD @ 450/650 nm ([5]; 31.6 μg/ml): 0.145 OD
TOXICITY VALUES (XTT - O.D. @ 450/650 nm), SAMPLE ([5]; 31.6 μg/ml): 0.1469 O.D. (2×) and 0.1399 O.D.
% Cell Viability ([5]; 100 μg/ml): 14.76%
Cytotoxicity Test Values Mean OD @ 450/650 nm ([5]; 100 μg/ml): 0.165 OD
TOXICITY VALUES (XTT - O.D. @ 450/650 nm), SAMPLE ([5]; 100 μg/ml): 0.1657 O.D. (2×) and 0.1646 O.D.
TC 25% ([5]; human PBMCs, XTT): 12.3 µg/mL (≈ 35.3 µM)
TC50 (TC 50%) ([5]; human PBMCs, XTT): 18.0 µg/mL (≈ 51.7 µM)
TC 95% ([5]; human PBMCs, XTT): <100 µg/mL
